Assay results from patent publication US20130040882A1, “USE OF FIBROBLAST GROWTH FACTOR FRAGMENTS” (NOVARTIS AG, priority 2003, published 2013).
Several values for one entry are separate records, joined by “and”; a condition that tells them apart may be missing. Identical values can stand only once.

Tested on: transcript levels in tissues (GH/IGF and glucagon/insulin axes, SSTR signalling)
Assay type: in vivo, cynomolgus monkeys
[1] = pituitary, 0.1 mg/animal/14 day, control 72
[2] = pituitary, 0.1 mg/animal/14 day, control 91
[3] = pituitary, 0.1 mg/animal/14 day, control 198
[4] = pituitary, 0.1 mg/animal/14 day, control 225

With “cyclo[4-(NH2—C2H4—NH—CO—O)Pro-Phg-DTrp-Lys-Tyr(4-Bzl)-Phe] [SOM230]” the “ATPase, H+/K+ exchanging, beta polypeptide expression ↓ (fold change)” value (liver) was “polypeptide ↓ x2”, the “Adenylyl cyclase-associated protein expression ↑ (fold change)” value (liver) was “↑ x1.5” and the “Arginine vasopressine receptor 2 expression ↑ (fold change)” value (liver) was “receptor 2 ↑ x2.5”. For the same substance, the “B lymphoid tyrosine kinase expression ↑ (fold change)” value (liver) was “↑ x3.5”, the “BCL2-like 1 expression ↓ (fold change)” value (liver) was “↓ x3.5” and the “Bone-derived GF expression ↑ (fold change)” value (liver) was “↑ x3”. For the same substance, the “Bruton agammaglobulinemia a tyrosine kinase expression ↑ (fold change)” value (liver) was “↑ x1.5”, the “Butyrate response factor 2 (EGF-response factor 2) expression ↑ (fold change)” value (liver) was “x2” and the “Ca++ channel, voltage-dependent, P/Q type, alpha 1A subunit expression ↓ (fold change)” value (liver) was “subunit ↓ x2.5”. The “Calcium/calmodulin-dependent protein kinase kinase 2, β expression ↑ (fold change)” value (liver) was “↑ x3”, the “Calmodulin 2 (phosphorylase kinase, δ) expression ↑ (fold change)” value (liver) was “kinase, δ) ↑ x2” and the “Cdk 5, regulatory subunit 1 expression ↑ (fold change)” value (liver) was “subunit 1 ↑ x2.5”. For the same substance, the “Cdk like-2 expression ↓ (fold change)” value (liver) was “x2”, the “Cdki1A (p21/Cip1) expression ↑ (fold change)” value (liver) was “(p21/Cip1) ↑ x6” and the “Cdki 2D (p19, inhibits CDK4) expression ↓ (fold change)” value (liver) was “↓ x2.5”. For the same substance, the “Corticosteroid binding globulin precursor expression ↑ (fold change)” value (liver) was “precursor ↑ x2”, the “DAG kinase, α (80 kD) expression ↑ (fold change)” value (liver) was “(80 kD) ↑ x3” and the “DAG kinase, δ (130 kD) expression ↑ (fold change)” value (liver) was “(130 kD) ↑ x1.5”. For the same substance, the “Death-associated protein 6 expression ↓ (fold change)” value (liver) was “↓ x2.5”, the “Dopamine receptor D2 expression ↑ (fold change)” value (liver) was “receptor D2 ↑ x3.5” and the “Dopamine receptor D3 expression ↑ (fold change)” value (liver) was “receptor D3 ↑ x2”. For the same substance, the “EGF (β-urogastrone) expression ↓ (fold change)” value (liver) was “urogastrone) ↓ x2.5”, the “EGF-like repeats and discoidin I-like domains 3 expression ↓ (fold change)” value (liver) was “domains 3 ↓ x1.5” and the “EGFR (avian erythroblastic leukemia viral (v-erb-b) oncogene homolog) expression ↑ (fold change)” value (liver) was “homolog) ↑ x2”. For the same substance, the “FGFR 2 (bacteria-expressed kinase, keratinocyte growth factor receptor, craniofacial dysplasia) expression ↑ (fold change)” value (liver) was “dysplasia) ↑ x2”, the “Fas-activated serine/threonine kinase expression ↑ (fold change)” value (liver) was “kinase ↑ x1.5” and the “Fms-related tyrosine kinase 1(VEGF/vascular permeability factor receptor) expression ↓ (fold change)” value (liver) was “receptor) ↓ x1.5”. The “GABA (A) receptor, γ2 precursor expression ↑ (fold change)” value (liver) was “precursor ↑ x4”, the “GABA(A) receptor-associated protein expression ↑ (fold change)” value (liver) was “protein ↑ x1.5” and the “GCSF expression ↑ (fold change)” value (liver) was “GCSF ↑ x3.5”. The “GFR-bound protein 2 expression ↓ (fold change)” value (liver) was “protein 2 ↓ x2.5”, the “Gene expression (AvgDiff): GR” value (liver) was 80 and the “Gene expression (AvgDiff): IGF-2” value (liver) was 269. The “Gene expression (AvgDiff): IGFBP2” value (liver) was 4,476, the “Gene expression (AvgDiff): Insulin promoter factor 1, homeodomain transcription factor” value (liver) was 42 and the “Glucacon receptor expression ↑ (fold change)” value (liver) was “↑ x5”. The “Glutamate receptor, metabotropic 4 expression ↑ (fold change)” value (liver) was “↑ x1.5”, the “Glycosylphosphatidylinositol specific phospholipase D1 expression ↓ (fold change)” value (liver) was “↓ x1.5” and the “Growth differentiation factor 1 expression ↑ (fold change)” value (liver) was 1 ↑ x3. For the same substance, the “IFN regulatory factor 5 expression ↑ (fold change)” value (liver) was “factor 5 ↑ x2.5”, the “IFN-induced leucine zipper protein expression ↑ (fold change)” value (liver) was “protein ↑ x1.5” and the “IFN-inducible RNA-dependent protein kinase expression ↑ (fold change)” value (liver) was “protein kinase ↑ x4”. For the same substance, the “IFN-related developmental regulator 2 expression ↓ (fold change)” value (liver) was “regulator 2 ↓ x1.5”, the “IFN-stimulated protein, 15 kDa expression ↓ (fold change)” value (liver) was “protein, 15 kDa ↓ x2” and the “IFNγ responsive transcript expression ↑ (fold change)” value (liver) was “transcript ↑ x1.5”. For the same substance, the “IGF-2 expression ↓ (fold change)” value (liver) was “IGF-2 ↓ x2.5”, the “IGFBP2 expression ↑ (fold change)” value (liver) was “IGFBP2 ↑ x2” and the “IL2 R, γ chain, precursor expression ↑ (fold change)” value (liver) was “precursor ↑ x2.5”. For the same substance, the “IP 5-phosphatase expression ↑ (fold change)” value (liver) was “↑ x2”, the “Insulin promoter factor 1, homeodomain transcription factor expression ↓ (fold change)” value (liver) was “↓ x1.5” and the “Natriuretic peptide receptor A/guanylate cyclase A (atrionatriuretic peptide receptor A) expression ↑ (fold change)” value (liver) was “↑ x6”. For the same substance, the “Nck, Ash and PLC γ binding protein NAP4 expression ↑ (fold change)” value (liver) was “NAP4 ↑ x3.5”, the “PDGF, α polypeptide expression ↑ (fold change)” value (liver) was “polypeptide ↑ x1.5” and the “PDGFR, α polypeptide expression ↑ (fold change)” value (liver) was “polypeptide ↑ x2”. The “PI transfer protein expression ↑ (fold change)” value (liver) was “↑ x3.5”, the “PI transfer protein, β expression ↓ (fold change)” value (liver) was “β ↓ x1.5” and the “PKC substrate 80K-H expression ↑ (fold change)” value (liver) was 80K-H ↑ x1.5. For the same substance, the “PKC, ι expression ↓ (fold change)” value (liver) was “PKC, ι ↓ x1.5”, the “PLA2, group IIA (platelets, synovial fluid) expression ↑ (fold change)” value (liver) was “fluid) ↑ x5.5” and the “PLC, γ1 (formerly subtype 148) expression ↑ (fold change)” value (liver) was “subtype 148) ↑ x2”. The “Rb 1 (including osteosarcoma) expression ↓ (fold change)” value (liver) was “↓ x2”, the “Rb binding protein expression ↑ (fold change)” value (liver) was “↑ x2.5” and the “Rb-like 2 (p130) expression ↑ (fold change)” value (liver) was “x3”. For the same substance, the “Receptor (calcitonin) activity modifying protein 1 precursor expression ↑ (fold change)” value (liver) was “precursor ↑ x1.5”, the “Solute carrier family 9 (sodium/hydrogen exchanger), isoform 3 regulatory factor 1 expression ↑ (fold change)” value (liver) was “↑ x11.5” and the “Solute carrier family 11 (Na+/phosphate symporters), member 1 expression ↑ (fold change)” value (liver) was “member 1 ↑ x2.5”. The “TGF, β1 expression ↓ (fold change)” value (liver) was “TGF, β1 ↓ x1.5”, the “TGFβ activated kinase-binding protein 1 expression ↑ (fold change)” value (liver) was “protein 1 ↑ x2.5” and the “TGFβR III (betaglycan, 300kδ) expression ↓ (fold change)” value (liver) was “↓ x2”. The “THR interacting protein 15 expression ↑ (fold change)” value (liver) was “protein 15 ↑ x1.5”, the “THR sulfo transferase expression ↑ (fold change)” value (liver) was “transferase ↑ x2.5” and the “TNF (ligand) superfamily, member 10 expression ↑ (fold change)” value (liver) was “member 10 ↑ x1.5”. The “TNF-α converting enzyme expression ↓ (fold change)” value (liver) was “enzyme ↓ x2”, the “δ sleep inducing peptide, immunoreactor expression ↑ (fold change)” value (liver) was “↑ x2.5” and the “PP 1, regulatory (inhibitor) subunit 5 AvgDiff” value (pituitary, 0.1 mg/animal/14 day, control 20) was 75. The “SSTR3 AvgDiff” value (pituitary, 0.1 mg/animal/14 day, control 22) was 57, the “Cell division cycle 25B AvgDiff” value (pituitary, 0.1 mg/animal/14 day, control 40) was 162 and the “GLUR 2, precursor AvgDiff” value (pituitary, 0.1 mg/animal/14 day, control 42) was 59. For the same substance, the “BCL2-antagonist of cell death AvgDiff” value (pituitary, 0.1 mg/animal/14 day, control 44) was 69, the “PTP, receptor type, T AvgDiff” value (pituitary, 0.1 mg/animal/14 day, control 58) was 101 and the “Putative Ca++ transporting ATPase AvgDiff” value (pituitary, 0.1 mg/animal/14 day, control 61) was 101. For the same substance, the “K+ voltage-gated channel, Shab-related subfamily, member 1 AvgDiff” value (pituitary, 0.1 mg/animal/14 day, control 66) was 22, the “PI-3-kinase, catalytic, α polypeptide AvgDiff” value [1] was 21 and the “RAB 5C, member RAS oncogene family AvgDiff” value [1] was 162. The “Cdk inhibitor 2C (p18, inhibits CDK4) AvgDiff” value (pituitary, 0.1 mg/animal/14 day, control 81) was 184, the “ATPase, Na+/K+ transporting, α 2 (+) polypeptide AvgDiff” value (pituitary, 0.1 mg/animal/14 day, control 86) was 184 and the “PI-3-kinase, catalytic, δ polypeptide AvgDiff” value [2] was 34. The “S-phase response (cyclin-related) AvgDiff” value [2] was 129, the “PLC, γ 1 (formerly subtype 148) AvgDiff” value (pituitary, 0.1 mg/animal/14 day, control 111) was 40 and the “SHB adaptor protein (a Src homology 2 protein) AvgDiff” value (pituitary, 0.1 mg/animal/14 day, control 112) was 38. The “PI transfer protein, β AvgDiff” value (pituitary, 0.1 mg/animal/14 day, control 125) was 42, the “ATPase, H+/K+ exchanging, α polypeptide AvgDiff” value (pituitary, 0.1 mg/animal/14 day, control 128) was 20 and the “Phosphatase and tensin homolog (mutated in multiple advanced cancers 1) AvgDiff” value (pituitary, 0.1 mg/animal/14 day, control 129) was 36. The “K+ channel, subfamily K, member 3 (TASK) AvgDiff” value (pituitary, 0.1 mg/animal/14 day, control 132) was 26, the “Rab geranylgeranyltransferase, α subunit AvgDiff” value (pituitary, 0.1 mg/animal/14 day, control 164) was 104 and the “MAPKKK5 AvgDiff” value (pituitary, 0.1 mg/animal/14 day, control 171) was 278. The “Neuroblastoma-amplified protein AvgDiff” value (pituitary, 0.1 mg/animal/14 day, control 178) was 237, the “Cyclin D3 AvgDiff” value (pituitary, 0.1 mg/animal/14 day, control 187) was 338 and the “Cdk inhibitor 2D (p19, inhibits CDK4) AvgDiff” value [3] was 99. For the same substance, the “Cyclin F AvgDiff” value [3] was 74, the “BCL2-associated athanogene AvgDiff” value (pituitary, 0.1 mg/animal/14 day, control 216) was 318 and the “Core-binding factor, runt domain, α subunit 2; translocated to, 1; cyclin D-related AvgDiff” value [4] was 491. The “Forkhead box H1 AvgDiff” value [4] was 117, the “Rab geranygeranyltransferase, β subunit AvgDiff” value (pituitary, 0.1 mg/animal/14 day, control 230) was 284 and the “Bax gamma AvgDiff” value (pituitary, 0.1 mg/animal/14 day, control 258) was 326. The “ATPase, Na+/K+ transporting, β 3 polypeptide AvgDiff” value (pituitary, 0.1 mg/animal/14 day, control 292) was 610, the “IP-4-phosphatase, type 1, isoform b AvgDiff” value (pituitary, 0.1 mg/animal/14 day, control 296) was 177 and the “BCL2/adenovirus E1B 19kD-interacting protein 3 AvgDiff” value (pituitary, 0.1 mg/animal/14 day, control 342) was 458. For the same substance, the “Dual specificity phosphatase 8 AvgDiff” value (pituitary, 0.1 mg/animal/14 day, control 493) was 170, the “Forkhead box O3A AvgDiff” value (pituitary, 0.1 mg/animal/14 day, control 497) was 257 and the “Programmed cell death 6 AvgDiff” value (pituitary, 0.1 mg/animal/14 day, control 504) was 635. The “PKC inhibitor AvgDiff” value (pituitary, 0.1 mg/animal/14 day, control 2,351) was 3,333 and 3,332, the “ATPase, Na+/K+ transporting, β1 polypeptide expression ↑ (fold change)” value (spleen) was “polypeptide ↑ x2.5” and the “Adrenergic, α-2C-, receptor expression ↓ (fold change)” value (spleen) was “↓ x2”. The “Arginine vasopressine receptor 1B expression ↑ (fold change)” value (spleen) was “receptor 1B ↑ x2”, the “Bcl-2 binding component 3 expression ↑ (fold change)” value (spleen) was “↑ x2.5” and the “Ca++ channel, voltage-dependent, α2/δ subunit 1 expression ↑ (fold change)” value (spleen) was “α2/δ subunit 1 ↑ x2”. For the same substance, the “Ca++ channel, voltage-dependent, α2/δ subunit 2 expression ↑ (fold change)” value (spleen) was “↑ x1.5”.
